Laboratory results from patent publication US11684592B2, “Multiresistant-tumour sensitiser” (Instituto Nacional de Neurologia Y Neurocirugia Manuel …, priority 2017, dated 2023).

How the values were obtained:
C6 cells from rat glioma [1] = experiment: Determination of apoptotic death by dual staining with propidium iodide and Hoechst 33342; assay type: cell-based; details: curcumin 100 μM or Cur-[G2]-OH 300 μM, 24 or 48 hours
Experimental: C6 cells from rat glioma (American Tissue Culture Collection, Rockville, Md., U.S.A. ATCC® CCL-107™) cultured under standard conditions in DMEM medium supplemented with Bovine Fetal Serum and 15% horse serum were used for the experiments.
1×10^4 C6 cells/well were cultured with 100 μl of Dulbecco's Modified Eagle's Medium (DMEM) medium for 24 hours in 96-well plates. The cells were treated with curcumin (100 μM), or with Cur-[G2]-OH (300 μM), or with the respective vehicle as a control. After 24- or 48-hours post-treatment, the cells were fixed with a mixture of methanol/acetone (1:1) and stained with propidium iodide (0.5 μg/ml), washed and Hoechst 33342 dye was added (0.1 μg/ml) for staining the nuclei. Cells were observed on the Cytation 3® plate reader (BioTek® Instruments, Inc.) using the DAPI (λ=377-447 nm) and Texas Red (λ=586-647 nm) filters, and the images were captured and analyzed with the Gen5 2.06® program.

C6 cells from rat glioma [2] = experiment: DNA fragmentation assay; assay type: cell-based; details: curcumin 100 μM or Cur-[G2]-OH 300 μM, 24 h
Experimental: To determine DNA fragmentation, C6 cells (1×10^6) were seeded in Petri dishes (100 mm) at a confluence of 70%. They were treated with curcumin (100 μM) or Cur-[G2]-OH (300 μM) and incubated for 24 and 48 hours. Controls were incubated with vehicle only (DMSO or PBS respectively).
The DNA was extracted using Trizol (Invitrogen® 15596-026), according to the supplier's specifications, and quantified on a spectrophotometer (Genesys 8®). 20 μg of DNA from each sample was deposited on a 1.5% agarose gel. Electrophoresis was performed at 100 V for 90 minutes. The gel was stained with the Hydragreen™ dye (ACTGene ACT-IDM604) and DNA detection was performed using the ethidium bromide filter and UV light on the Chemidoc-It TS2 imager photodocument (UVP, CA).

[3] = test system: Beclin-1, p62, Nrf2, eIF2a and p-eIF2α in C6 cells; experiment: Analysis of autophagy markers and Nrf2 pathway by Western blot; assay type: cell-based, rat; details: for levels of total eIF2-α (immunoblot) / phosphorylation of eIF2-α (p-eIF2-α, immunoblot): curcumin 2, 15 and 30 μM or Cur-[G2]-OH 6, 45 and 90 μM
Experimental: C6 cells were grown in 25 cm^2 culture bottles (Corning® N.Y.) to form a 70% confluent monolayer (approximately 4×10^6 cells) and treated with Cur-[G2]-OH (300 μM) for 24 hours. The cells were washed in cold PBS, and lysis buffer (50 mM Tris-HCl, 120 mM NaCl, 0.01% IGEPAL) was added with a protease inhibitor cocktail (Sigma® P8340) and centrifuged to recover the supernatant. Proteins were quantified by the Lowry method (Lowry et al. 1951).
[…] The membranes were blocked with skim milk and subsequently incubated with the respective primary antibody (Beclin1, ab62557; p62, ab91526; Nrf2, sc-30915; p-eIF2α, sc-12412; eIF2, sc-11386 or β-actin, sc-47778) under stirring overnight at 4° C. After incubation, the membranes were washed with a Tween 20 tris-base saline buffer (TBST) and incubated with the respective secondary antibody conjugated to horseradish peroxidase (SIGMA). The bands were visualized by chemiluminescence with the Western Blotting Luminol Reagent reagents (Santacruz Biotechnology®), and the ChemiDoc-It® TS2 Imaging System (UVP, LLC).

[4] = test system: p62, Beclin1 or LC3 in C6 cells; experiment: Analysis of autophagy markers by immunofluorescence (simple staining); assay type: cell-based, rat; details: Cur-[G2]-OH 3-150 μM, 6 and 24 hours
Experimental: Simple staining: 1×10^4 C6 cells/well were cultured with 100 μL of DMEM medium in 96-well plates and incubated 24 hours. Cells were treated with different concentrations of Cur-[G2]-OH (3, 6, 15, 30, 45, 90 and 150 μM), and incubated for 6 and 24 hours. Control cells were replaced only with fresh DMEM medium. The cells were washed with cold PBS and fixed with a mixture of methanol/acetone (1:1) for 5 minutes; they were washed with PBS and incubated with 1% BSA in PBST. Subsequently, they were incubated with the primary antibody (p62, Beclin1 or LC3) at 4° C. overnight. They were washed and incubated with the fluorochrome-conjugated secondary antibody (Abcam® ab150073 Alexa fluor 488) for 1 hour at room temperature. They were washed with PBS and the nucleus stained with Hoechst 33342 (0.1 μg/ml). The images were observed on a Cytation 3® multimodal plate reader and captured and analyzed with the Gen5® 2.06 program using the DAPI (λ=377-447 nm) and GFP (λ=469-525 nm) filters.

[5] = test system: Keap1, Nrf2 and p62 in C6 cells; experiment: Sequential immunofluorescence, co-location of Keap1-p62, Nrf2-p62 and Keap1-Nrf2; assay type: cell-based, rat; details: Cur-[G2]-OH 6, 45 or 90 µM, 24 hours
Experimental: Sequential immunofluorescence: For the protein co-location studies of Keap1-p62, Nrf2-p62 and Keap1-Nrf2, 5×10^3 C6 cells/well were grown in half-area 96 well plates and incubated for 24 hours. Subsequently, the cells were treated with Cur-[G2]-OH (6, 45 or 90 µM) and incubated for 24 hours. In control cells only DMEM medium was replaced by fresh medium. Then, cells were washed with cold PBS and fixed with paraformaldehyde (4% in PBS) or with a mix of methanol/acetone, with paraformaldehyde, cells were washed and permeabilized with PBST (this step was not performed on the cells fixed with methanol/acetone). Cells were washed again and blocked in BSA at 1% in PBST.
The cells were incubated in the first primary antibody (Keap1 or Nrf2) at 4° C. overnight, and subsequently washed and re-incubated with the fluorochrome-conjugated secondary antibody (Alexa fluor 488 Abcam® ab150129), in the dark for 1 hour at room temperature. They were washed and again blocked for 30 minutes with goat serum; The serum was removed and the solution of the second respective primary antibody (p62 or Nrf2) was placed. It was incubated at 4° C. overnight. The incubation of the secondary antibodies proceeded in the same manner as described before, but using the Alexa flour 647 antibody from Abcam® (ab150079). The nuclei were stained with Hoechst 33342 solution (0.1 μg/ml) and the images were captured on a Cytation 3® multimodal plate reader (Bio Tek®, Instruments Inc.), with the Gen5 2.06 program using DAPI filters (λ=377-447 nm), GFP (λ=469-525 nm) and Texas Red (λ=586-647 nm).

C6 cells [6] = experiment: Determination of Reactive Oxygen Species (ROS); assay type: cell-based, rat; details: 1 hour; for generation of ROS: curcumin 2, 15, 30 or 100 μM or Cur-[G2]-OH 6, 45, 90 or 300 μM, without NAC; for generation of ROS in the presence of N-acetyl Cysteine (NAC): with NAC 400 μM
Experimental: Intracellular generation of ROS was evaluated in real time by fluorescence microscopy using the ENZ-51011 detection kit (Enzo® Life Sciences). 5×10^3 cells per well were grown in half-area 96 wells plates (Costar 3595®) and incubated for 24 hours. Then, were incubated for 1 hour, with curcumin (2, 15, 30 or 100 μM), or Cur-[G2]-OH (6, 45, 90 or 300 μM) alone or in the presence of the ROS inhibitor N-Acetyl Cysteine (NAC, 400 μM) according to the manufacturer's instructions. As controls, pyocyanin (200 μM) was used as an inducer and NAC […] as an inhibitor, or DMEM medium with or without DMSO as a negative control. At the end of treatment, the test solutions were withdrawn, and the ROS detection solution was added. The plates were observed under bright field and fluorescence microscopy with the GFP filter (λ=469-525 nm), in the Cytation 3® multimodal reader (BioTek®, USA), and the images were captured and analyzed with the Gen5 2.06 program (BioTek®, USA). The experiments were performed five times.

C6 cells [7] = experiment: Effect on glutathione (GSH) concentration, GT10 colorimetric test; assay type: cell-based, rat
Experimental: Reduced glutathione (GSH) intracellular concentration were measured by a colorimetric test using the GT10 (Oxford Biomedical Research® kit), following the manufacturer's instructions. […] The controls were incubated with DMEM media only. Absorbance was read at 400 nm in Cytation3 ® cell Imaging Multi-mode reader (BioTeck, USA). It is observed that at low concentrations of Cur-[G2]-OH, the synthesis of GSH is induced in C6 cells, but at high concentrations GSH synthesis is inhibited and decrease its concentration in cells.

C6 cells [8] = experiment: Sensitization of tumor cells to oxidative stress (FeSO4), MTT cell viability; assay type: cell-based, rat
Experimental: C6 cells (1×10^5 cells/well) were seeded in 96 wells plates. At 24 h, a group of cells were treated with FeSO4 at concentrations of 50, 80, 100 and 150 μM or Cur-[G2]-OH at concentrations of 240 or 300 μM and incubated for an additional 24 hours.
Another group of cells were previously incubated by 2 h with the oxidizing agent FeSO4 at concentrations of 50, 80, 100 and 150 μM and subsequently washed for addition to cur-[G2]-OH at concentrations of 240 or 300 μM, continued to incubate until 24 h was completed. A last group of cells, first was treated with Cur-[G2]-OH at concentrations of 240 or 300 μM for 4 h and subsequently changed the medium and FeSO4 was added to concentrations of 50, 80, 100 or 150 μM continuing incubation for 20 hours more.
The colorimetric test based on the reduction of tetrazolium dye MTT (3-(4,5-dimethyltiazol-2-yl)-2,5-diphenyltetrazolium bromide) was used to determine cell viability (Terry L. et al. Cell Viability Assays. May 1, 2013). The formazan crystals were dissolved with a mixture of isopropanol/acetic acid and the absorbance was measured at 540 nm in a microplate reader (Molecular Devices, Sunnyvale, Calif., USA).
The data were statistically analyzed using a one-way ANOVA analysis, and Newman Keuls post-analysis for multiple comparisons (n=3, Mean=SEM).

normal cells = experiment: Toxicity to normal cells; assay type: cell-based; details: high concentration
[9] = Stability in acidic pH of gastric juices; assay type: physicochemical
[10] = Cur-[G2]-OH 300 μM, 24 h, vs untreated cells

Q: What does the source list for COc1cc(/C=C/C(=O)/C=C(O)/C=C/c2ccc(OC(=O)C(C)(COC(=O)C(C)(CO)CO)COC(=O)C(C)(CO)CO)c(OC)c2)ccc1OC(=O)C(C)(COC(=O)C(C)(CO)CO)COC(=O)C(C)(CO)CO [Cur-[G-2]-OH]?
A: nuclear staining / apoptotic morphology (propidium iodide and Hoechst 33342) (C6 cells from rat glioma [1]): staining of the nuclei similar to that of the untreated controls; DNA fragmentation (agarose gel electrophoresis) (C6 cells from rat glioma [2]): DNA remains packed and does not migrate into the gel; expression of Beclin1 (Western blot) [3, 10]: increases the expression of Beclin1; expression of p62 (Western blot) [3, 10]: decreases the expression of p62; total levels of the Nrf2 protein (immunoblot) ([3]; Cur-[G2]-OH 300 μM, vs untreated cells): significant decrease in Total levels of the Nrf2 protein; levels of total eIF2-α (immunoblot) ([3]; 24 h): without substantial changes in the levels of total eIF2-α; phosphorylation of eIF2-α (p-eIF2-α, immunoblot) ([3]; 24 h): significant decrease in phosphorylation of eIF2-α; expression of Beclin1 (immunofluorescence) [4]: induces the expression of proteins Beclin1 and LC3, in a concentration-dependent manner; expression of LC3 (immunofluorescence) [4]: induces the expression of proteins Beclin1 and LC3, in a concentration-dependent manner; expression of p62 (immunofluorescence) [4]: significantly decreasing expression of p62; co-location Keap1-Nrf2 in the nucleus [5]: interaction of Keap1 with Nrf2 in this subcellular compartment is observed; expression of Keap1 in nucleus and cytoplasm (immunofluorescence) [5]: significant levels are still detected, both in the nucleus and in the cytoplasm; expression of Nrf2 in cytoplasm and nucleus (immunofluorescence) [5]: rapidly induces the loss of the expression of protein Nrf2 in the cytoplasm and the attenuation of the signal in the nucleus; p62 localisation and co-location Keap1-p62 [5]: promotes the exclusion of p62 from the nucleus and its interaction with Keap1 in the cytoplasm and autophagosomes; generation of ROS (C6 cells [6]): promotes the generation of ROS in a concentration-depending manner; generation of ROS in the presence of N-acetyl Cysteine (NAC) (C6 cells [6]): not substantially modified with the use of an antioxidant (NAC); decrease at GSH levels (C6 cells [7]; 300 μM, 24 h): about 50%; GSH levels (C6 cells [7]; 300 μM, 48 hours, data not shown): complete elimination of GSH levels; baseline levels of GSH (C6 cells [7]; intermediate doses 45 and 90 μM, 24 hours): causes the baseline levels of GSH to increase considerably; cell viability / cytotoxicity in combination with FeSO4 (MTT) (C6 cells [8]; C6 cells first exposed to FeSO4 50-150 μM for 2 h, then Cur-[G2]-OH 240 or 300 μM, or administered simultaneously): This synergism does not exist; cell viability / cytotoxicity in combination with FeSO4 (MTT) (C6 cells [8]; C6 cells pre-incubated with Cur-[G2]-OH 240 or 300 μM for 4 h, then FeSO4 50-150 μM for 20 h): synergism between Cur-[G-2]-OH and FeSO4; toxicity to normal cells (normal cells): not toxic to normal cells at high concentration; stability in acidic pH [9]: instability of Cur-[G-2]-OH in the acidic pH of gastric juices

Q: Which results are given for COc1cc(/C=C/C(=O)CC(=O)/C=C/c2ccc(O)c(OC)c2)ccc1O [curcumin, reference compound]?
A: nuclear staining / apoptotic morphology (propidium iodide and Hoechst 33342) (C6 cells from rat glioma [1]): chromatin condensation (stars), nuclear fragmentation (thin arrows) and apoptotic bodies (arrowheads); DNA fragmentation (agarose gel electrophoresis) (C6 cells from rat glioma [2]): DNA fragmentation was only evident in cells treated with curcumin; levels of total eIF2-α (immunoblot) ([3]; 24 h): increases both the levels of total eIF2-α; phosphorylation of eIF2-α (p-eIF2-α, immunoblot) ([3]; 24 h): increases both the levels of total eIF2-α, and the levels of p-eIF2α; generation of ROS (C6 cells [6]): less effective at producing ROS; generation of ROS in the presence of N-acetyl Cysteine (NAC) (C6 cells [6]): slightly amplified with the use of NAC
